The text below walks through data of article PMC10533516, “The Dictyostelium discoideum FimA protein, unlike yeast and plant fimbrins, is regulated by calcium similar to mammalian plastins” (Scientific Reports, 2023).

In one experiment the target is T1, FimA-EF-N81ter (Dictyostelium discoideum, UniProt P54680).
T1 construct: EF-hand headpiece domain truncated before switch helix H5 (N81ter), residues 1-80; N-terminal 6His-tag with TEV site, tag cleaved; E. coli BL21(DE3)
T1 sequence (P54680 1-80): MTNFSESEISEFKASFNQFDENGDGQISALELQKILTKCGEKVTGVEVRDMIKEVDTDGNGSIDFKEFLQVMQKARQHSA
The experiment can be described thus: 1H, […]-HSQC NMR titration. It is filed as binding.

Another experiment addresses T2, FimA-EF (Dictyostelium discoideum, UniProt P54680).
T2 construct: EF-hand headpiece domain with switch helix H5, residues 1-93; pET15b, N-terminal 6His-tag with TEV site, tag cleaved; E. coli BL21(DE3)
T2 sequence (P54680 1-93): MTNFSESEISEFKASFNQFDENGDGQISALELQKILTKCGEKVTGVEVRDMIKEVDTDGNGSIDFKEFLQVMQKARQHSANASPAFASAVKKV
In words: 1H, […]-HSQC NMR titration (chemical shift changes). As to conditions: 25 °C, pH 7.0; Ca2+-bound; site of switch helix H5. Format: binding.

Experiment [1] deals with L-plastin H5 peptide H5 (Homo sapiens) (UniProt P13796). Particulars: cited from earlier work.
The target of experiment [2] is T3, FimA-EF-N81ter (EF-hand domain of the Dictyostelium discoideum FimA headpiece, residues 1-80, lacking the H5 … (Dictyostelium discoideum, UniProt P54680 1-80)).
T3 construct: FimA (fimbrin) of Dictyostelium discoideum, UniProtKB P54680, headpiece truncated by a stop codon at N81: residues 1-80, omits the entire H5 region; Made by site-directed mutagenesis of the synthetic FimA 1-93 gene in pET15b (NdeI/XhoI) with an N-terminal 6His-tag and a TEV site; The methods say the last 12 amino acids are deleted, but 1-80 of 1-93 removes 13; also called …
T3 sequence (looked up): T1 sequence (P54680 1-80)
In words: NMR titration; 15N-labelled FimA-EF-N81ter titrated with the H5 peptide, 1H,15N-HSQC, chemical shift changes fitted, fast exchange; 25 °C, 100 mM KCl, 20 mM Bis-Tris pH 7.0, 10 mM DTT. Particulars: both partners purified.

As usually defined, the Kd is the free concentration of one partner at which half of the binding sites on the other are occupied at equilibrium, for simple one-to-one binding. For the molecule `NCCCCCCNS(=O)(=O)c1cccc2c(Cl)cccc12` [W7], at FimA-EF-N81ter, the Kd was 3.8 µM. The “1H,15N-HSQC NMR titration (chemical shift changes)” value on FimA-EF was “Both TFP and W7 caused significant chemical shift changes in the HSQC spectrum of FimA-EF”.

`CN1CCN(CCCN2c3ccccc3Sc3ccc(C(F)(F)F)cc32)CC1` [TFP] had a dissociation constant (Kd) on FimA-EF-N81ter of 1.5 µM. In addition, the “1H,15N-HSQC NMR titration (chemical shift changes)” value at FimA-EF is “Both TFP and W7 caused significant chemical shift changes in the HSQC spectrum of FimA-EF”.

For “L-plastin EF-hand domain (from UniProt P13796)”, the dissociation constant Kd in experiment [1] was 3.5 µM.

B1: H5 peptide (14-residue synthetic peptide encompassing the H5 / putative regulatory switch-helix region of FimA) (peptide)
peptide: Ac-SANASPAFASAVKK-NH2
notes: Stretch of FimA of Dictyostelium discoideum (UniProtKB P54680) encompassing the putative regulatory domain (H5); Limits worked out from the printed positions N81, P84 and F86; also called synthetic H5 peptide; source: synthetic peptide, obtained from Genscript (purity over 95%)
Take B1: the Kd in experiment [2] was found to be 300 µM.
